According to US7192948B2, “Bicyclic heterocycles as HIV integrase inhibitors” (priority 2004, dated 2007):

Key:
[1] = target: T1, HIV-integrase (Human immunodeficiency virus type 1 group M subtype B, UniProt P12497); test: HIV-Integrase Inhibition Activity (SPA bead strand transfer assay); assay type: biochemical; settings: recombinant integrase, in vitro
T1 construct: Recombinant integrase (0.26 ng) was incubated with the beads
Description: HIV-Integrase Inhibition Activity. To evaluate in-vitro activity against HIV-integrase, 5 pmole of biotin labeled substrate DNA was bound to 100 μg of Streptavidin coated PVT SPA beads (Amersham Pharmacia Biotech). Recombinant integrase (0.26 ng) was incubated with the beads for 90 min at 37° C. Unbound enzyme was removed by washing the complex followed by addition of inhibitors and 0.1 fmol of P33 labeled target DNA. The reaction was stopped by adding EDTA to a final concentration of […]. Samples were counted in TopCountNXT (Packard) and the CPM was used as a measure of integration. The reaction condition was as described in A. Engelman and R. Craigie, J. Virol. 69, 5908–5911 (1995). The sequences of substrate and target DNA were described in Nucleic Acid Research 22, 1121–1122 (1994).

Structure (SMILES)	IC50 [1] [nM]	melting point
O=C1Cn2c(nc(C(=O)NCc3ccc(Cl)c(Cl)c3)c(O)c2=O)N1 [Example 2, 6-Hydroxy-2,5-dioxo-1,2,3,5-tetrahydro-imidazo[1,2-a]pyrimidine-7-carboxylic acid 3,4-dichloro-benzylamide]	4 to 15	280 °C (dec.)
Cc1cc(CNC(=O)c2nc3n(c(=O)c2O)CC(=O)N3)ccc1F [Example 3, 6-Hydroxy-2,5-dioxo-1,2,3,5-tetrahydro-imidazo[1,2-a]pyrimidine-7-carboxylic acid 4-fluoro-3-methyl-benzylamide]	16 to 49000	287 °C (dec.)
O=C1Cn2c(nc(C(=O)NCc3ccc(F)c(Cl)c3)c(O)c2=O)N1 [Example 4, 6-Hydroxy-2,5-dioxo-1,2,3,5-tetrahydro-imidazo[1,2-a]pyrimidine-7-carboxylic acid 3-chloro-4-fluoro-benzylamide]	16 to 49000	295 °C (dec.)
Cc1ccc(CNC(=O)c2nc3n(c(=O)c2O)CC(=O)N3)cc1C [Example 5, 6-Hydroxy-2,5-dioxo-1,2,3,5-tetrahydro-imidazo[1,2-a]pyrimidine-7-carboxylic acid 3,4-dimethyl-benzylamide]	16 to 49000	287 °C (dec.)
O=C1CCn2c(nc(C(=O)NCc3ccc(F)cc3)c(O)c2=O)N1 [Example 6, 3-Hydroxy-4,8-dioxo-6,7,8,9-tetrahydro-4H-pyrimido[1,2-a]pyrimidine-2-carboxylic acid 4-fluoro-benzylamide]	16 to 49000	> 300 °C (dec.)
O=C1CCn2c(nc(C(=O)NCc3ccc(Cl)c(Cl)c3)c(O)c2=O)N1 [Example 7, 3-Hydroxy-4,8-dioxo-6,7,8,9-tetrahydro-4H-pyrimido[1,2-a]pyrimidine-2-carboxylic acid 3,4-dichloro-benzylamide]	4 to 15	> 300 °C (dec.)
Cc1cc(CNC(=O)c2nc3n(c(=O)c2O)CCC(=O)N3)ccc1F [Example 8, 3-Hydroxy-4,8-dioxo-6,7,8,9-tetrahydro-4H-pyrimido[1,2-a]pyrimidine-2-carboxylic acid 4-fluoro-3-methyl-benzylamide]	4 to 15	> 300 °C
CN1C(=O)CCn2c1nc(C(=O)NCc1ccc(F)cc1)c(O)c2=O [Example 18, N-(4-Fluorobenzyl)-3-hydroxy-9-methyl-4,8-dioxo-6,7,8,9-tetrahydro-4H-pyrimido[1,2-a]pyrimidine-2-carboxamide]	16 to 49000	176 to 178 °C
CN1C(=O)CCn2c1nc(C(=O)NCc1ccc(Cl)c(Cl)c1)c(O)c2=O [Example 19, N-(3,4-Dichlorobenzyl)-3-hydroxy-9-methyl-4,8-dioxo-6,7,8,9-tetrahydro-4H-pyrimido[1,2-a]pyrimidine-2-carboxamide]	4 to 15	198 to 201 °C
Cc1cc(CNC(=O)c2nc3n(c(=O)c2O)CCC(=O)N3C)ccc1F [Example 20, N-(4-Fluoro-3-methylbenzyl)-3-hydroxy-9-methyl-4,8-dioxo-6,7,8,9-tetrahydro-4H-pyrimido[1,2-a]pyrimidine-2-carboxamide]	4 to 15	216 °C
CN1C(=O)CCn2c1nc(C(=O)NCc1ccc(F)c(Cl)c1)c(O)c2=O [Example 21, N-(3-Chloro-4-fluorobenzyl)-3-hydroxy-9-methyl-4,8-dioxo-6,7,8,9-tetrahydro-4H-pyrimido[1,2-a]pyrimidine-2-carboxamide]	4 to 15	201 °C
Cc1ccc(CNC(=O)c2nc3n(c(=O)c2O)CCC(=O)N3C)cc1C [Example 22, N-(3,4-Dimethylbenzyl)-3-hydroxy-9-methyl-4,8-dioxo-6,7,8,9-tetrahydro-4H-pyrimido[1,2-a]pyrimidine-2-carboxamide]	16 to 49000	181 °C
O=C(NCc1ccc(F)cc1)c1nc2n(c(=O)c1O)CC(=O)N1CCC[C@@H]21 [Example 46, (S)-7-Hydroxy-4,6-dioxo-2,3,4,5,6,9b-hexahydro-1H-3a,5a,9-triaza-benz[e]indene-8-carboxylic acid 4-fluoro-benzylamide]	≥ 50	
